In this experiment the target is Sucrase-isomaltase, intestinal (Rattus norvegicus, UniProt P23739). Put plainly: In Vitro α-Glucosidase Inhibitory Assay. The conditions noted are these: pH 6.8. Here is the method: Rat intestinal acetone powder in normal saline (100: 1; w/v) was sonicated thoroughly and the supernatant was used as a source of crude intestinal α-glucosidase after centrifugation. In brief, […] of test sample ( 5 mg/mL DMSO solution) was reconstituted in […] of 100 mM phosphate buffer (pH 6.8) in a 96-well microplate and incubated with […] of crude intestinal α-glucosidase for 5 min before […] substrate (5 mM pNPG prepared in same buffer) was added. Release of p-nitrophenol was measured at 405 nm spectrophotometrically (SpectraMax Plus384; Molecular Devices Corp., Sunnyvale, CA, USA) 5 min after incubation withsubstrate. Individual blanks for test samples were prepared to correct background absorbance where substrate was replaced with […] of buffer. The control samplecontained […] of dimethylsulfoxide (DMSO) in place of test sample.
Sequence of Sucrase-isomaltase, intestinal (P23739 1-1013 limits assumed): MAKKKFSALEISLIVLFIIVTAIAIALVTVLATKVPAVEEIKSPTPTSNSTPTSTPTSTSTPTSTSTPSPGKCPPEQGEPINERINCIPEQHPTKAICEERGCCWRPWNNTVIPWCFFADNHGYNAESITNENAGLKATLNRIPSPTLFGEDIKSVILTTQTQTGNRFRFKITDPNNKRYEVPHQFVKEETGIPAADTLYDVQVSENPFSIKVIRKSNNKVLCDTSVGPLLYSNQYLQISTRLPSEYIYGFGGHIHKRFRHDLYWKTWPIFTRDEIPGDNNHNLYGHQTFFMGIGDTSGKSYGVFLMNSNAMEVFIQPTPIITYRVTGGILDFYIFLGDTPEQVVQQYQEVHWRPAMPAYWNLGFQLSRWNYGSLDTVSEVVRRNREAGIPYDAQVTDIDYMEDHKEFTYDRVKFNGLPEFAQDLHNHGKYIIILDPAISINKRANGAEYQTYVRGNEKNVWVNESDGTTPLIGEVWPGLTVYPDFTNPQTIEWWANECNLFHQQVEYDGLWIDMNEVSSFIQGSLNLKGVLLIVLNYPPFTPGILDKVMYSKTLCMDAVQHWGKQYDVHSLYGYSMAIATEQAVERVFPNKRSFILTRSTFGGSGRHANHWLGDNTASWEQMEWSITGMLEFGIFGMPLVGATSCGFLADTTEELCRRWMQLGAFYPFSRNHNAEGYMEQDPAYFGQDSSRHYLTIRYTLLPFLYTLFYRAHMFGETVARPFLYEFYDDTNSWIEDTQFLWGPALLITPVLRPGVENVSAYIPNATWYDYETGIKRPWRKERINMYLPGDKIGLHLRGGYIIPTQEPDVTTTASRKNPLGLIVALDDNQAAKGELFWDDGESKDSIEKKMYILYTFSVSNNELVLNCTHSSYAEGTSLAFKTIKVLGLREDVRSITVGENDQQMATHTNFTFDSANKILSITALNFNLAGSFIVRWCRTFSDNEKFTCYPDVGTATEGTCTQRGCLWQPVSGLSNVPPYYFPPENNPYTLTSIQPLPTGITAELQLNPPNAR
Sequence of Sucrase-isomaltase, intestinal (P23739 1014-1841 limits assumed): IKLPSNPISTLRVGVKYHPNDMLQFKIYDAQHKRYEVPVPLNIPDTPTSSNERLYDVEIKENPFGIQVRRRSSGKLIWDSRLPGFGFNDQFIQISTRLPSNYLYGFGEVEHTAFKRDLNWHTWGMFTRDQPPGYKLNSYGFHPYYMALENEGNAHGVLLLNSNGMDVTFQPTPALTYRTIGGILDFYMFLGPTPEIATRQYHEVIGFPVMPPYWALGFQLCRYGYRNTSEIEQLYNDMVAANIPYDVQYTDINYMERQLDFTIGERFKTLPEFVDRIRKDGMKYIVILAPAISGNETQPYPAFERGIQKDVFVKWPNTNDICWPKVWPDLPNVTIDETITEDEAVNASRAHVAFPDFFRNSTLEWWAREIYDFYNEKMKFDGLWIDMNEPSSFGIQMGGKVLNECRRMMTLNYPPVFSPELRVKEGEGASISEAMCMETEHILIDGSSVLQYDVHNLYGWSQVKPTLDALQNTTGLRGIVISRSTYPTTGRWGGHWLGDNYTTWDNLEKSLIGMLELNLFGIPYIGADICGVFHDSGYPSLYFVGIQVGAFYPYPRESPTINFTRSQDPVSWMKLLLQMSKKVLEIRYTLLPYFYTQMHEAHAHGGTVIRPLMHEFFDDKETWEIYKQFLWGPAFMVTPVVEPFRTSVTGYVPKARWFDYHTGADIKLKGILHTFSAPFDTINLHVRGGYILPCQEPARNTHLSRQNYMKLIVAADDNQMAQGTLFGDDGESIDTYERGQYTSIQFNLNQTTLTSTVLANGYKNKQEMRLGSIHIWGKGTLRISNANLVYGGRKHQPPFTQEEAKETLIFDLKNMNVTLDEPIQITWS

Turning to `O=[N+]([O-])c1ccc2[nH]c(-c3ccncc3)nc2c1` [6-Nitro-2-(4-pyridyl)-1H-benzo[d]imidazole (3e)], the IC50 came to 99.4 µM.
